Data from ChEMBL document CHEMBL5365429, “Discovery of 5-sulfonyltetrazoles as neuroblastoma differentiation agents” (Bioorg Med Chem Lett, 2023).
Calls of active or inactive are those of the source. The rule behind the calls is not given here.

Tests used:
Type in all cases: functional, cell-based
[1] = system: BE(2)-C; test: Induction of neuron differentiation in human BE2C cells assessed as neurite outgrowth by measuring neurite length at 25 uM measured after 4 days; conditions: time 4.0 day
[2] = system: BE(2)-C; test: Antiproliferative activity against human BE2C cells assessed as reduction in cell viability at 25 uM measured after 4 days; conditions: time 4.0 day
[3] = system: BE(2)-C; test: Antiproliferative activity against human BE2C cells assessed as reduction in cell viability at 25 uM
[4] = system: BE(2)-C; test: Antiproliferative activity against human BE2C cells assessed as reduction in cell viability; conditions: dose 50-200 µM
[5] = system: BE(2)-C; test: Induction of neuron differentiation in human BE2C cells assessed as neurite outgrowth by measuring neurite length at 25 uM
[6] = system: BE(2)-C; test: Induction of neuron differentiation in human BE2C cells assessed as neurite outgrowth by measuring neurite length at 25 uM by imaging analysis
[7] = system: BE(2)-C; test: Induction of neuron differentiation in human BE2C cells assessed as neurite outgrowth by measuring neurite length; conditions: dose 50-200 µM

SMILES	Activity [1]	also measured
CCCSc1nnnn1C	inactive	–
CCSc1nnnn1C	inactive	–
CSc1nnnn1C	inactive	–
C=CCSc1nnnn1C	inactive	–
Cn1nnnc1SCC1CC1	inactive	–
Cn1nnnc1S(=O)(=O)CC1CCC1	Active	–
C=CCS(=O)(=O)c1nnnn1C	Active	Activity [2]: Active
Cn1nnnc1S(C)(=O)=O	Active	–
Cn1nnnc1SCC#C[Si](C)(C)C	inactive	–
CCS(=O)(=O)c1nnnn1C	–	Activity [3]: Active; Activity [4]: Dose-Dependent Effect; Activity [5]: Active; Activity [6]: Active; Activity [7]: Dose-Dependent Effect
Cn1nnnc1SCC1CCC1	inactive	–
CCCS(=O)(=O)c1nnnn1C	Active	–
